Consider two compounds from PMC4635503, “High-affinity nitrate/nitrite transporters NrtA and NrtB of Aspergillus nidulans exhibit high specificity and different inhibitor sensitivity” (Microbiology, 2015).

In brackets after ≈: the same amount, converted by molar mass. Entries after “also recorded” stand apart in the source; their conditions may differ. Like-named read-outs stand apart in the source and are kept apart here. Where only a bound is given, the exact number is not on record here.

Test [1] deals with NrtA, NrtB (WT strain). Further details: method as in Brownlee & Arst (1983). Particulars: 1 mM chlorate, cells grown for 6 or 17 h, ref Brownlee & Arst (1983); cited from earlier work.
In test [2] the test system is NrtB. Further details: method as in Brownlee & Arst (1983). Particulars: crnA1 (nrtA1) mutant, 1 mM chlorate, cells grown for 6 or 17 h; ref Brownlee & Arst (1983); cited from earlier work.
Test [3] has as its target T1, NrtA (Emericella nidulans, UniProt P22152). On the set-up: mutant nrtB110 (expressing a functional NrtA); endogenous in cells; host or cells: Aspergillus nidulans mycelium, knockout strain nrtB110, nitrate-induced; method as in Zhou et al. (2000). The note with it: NrtA expressed in Xenopus oocytes; ref Zhou et al. (2000); cited from earlier work.
Test [4] deals with T1, NrtA. Put plainly: cell-based. The note with it: for Ki: K i, nrtB110 (NrtA), inhibitor concentration reducing net nitrate uptake rate by 50 % of control, mean ± SE; for nature of inhibition of nitrate transport (Lineweaver–Burk): NrtA (expressed in nrtB110). On the set-up: mutant nrtB110 (expressing a functional NrtA); endogenous in cells; host or cells: Aspergillus nidulans mycelium, knockout strain nrtB110, nitrate-induced; species or system Aspergillus nidulans. Here is the method:
(§1) These were performed on cultures grown in liquid AMM with 5 mM urea as nitrogen source for a total of 6.5 h at 37 °C ([Brownlee & Arst, 1983]). Urea was used as it (i) is a neutral nitrogen source, neither inducing nor repressing nitrate transport, (ii) has been used routinely in the past and (iii) permitted direct comparison with previously published results. […] Transporter activity was induced by the addition of 10 mM sodium nitrate 100 min prior to assay as described previously ([Brownlee & Arst, 1983]). Assays were carried out in triplicate, generally at pH 6.5, on three independently grown cultures for each strain and expressed as nmol nitrate removed from the medium min^ − 1 (mg dried mycelium)^ − 1, as discussed before ([Brownlee & Arst, 1983]; [Kinghorn et al., 2005]; [Unkles et al., 2012]). Both carbonic acid and bicarbonate chemical species can occur at pH 6.5. Thus potential inhibition of nitrate transport by carbonic acid/bicarbonate was tested at pH 6.5 and bicarbonate at pH 8.3.
(§2) To effectively assess net uptake, it is necessary that any export, i.e. simultaneous transport in the reverse direction, is minimal.
(§3) Values of K m and V max were calculated by linear regression of Lineweaver–Burk analyses (1/v against 1/s, where v is net uptake and s is substrate concentration). The kinetic values of nitrate transport by the WT and mutants were compared with those from a previous report ([Unkles et al., 2001]). […] Therefore the kinetic values in the absence of inhibitors from the present study were used as control values. Each K i value was determined by regression of the rates of net nitrate uptake transport versus the range of concentrations of a particular inhibitor: linear or nonlinear regression was used, depending on which type provided the highest r ^2 value. Calculated from each regression was the concentration of the inhibitor that reduced net nitrate uptake rate by 50 % of the control (without inhibitor) rate, which was assessed as the K i value. Lineweaver–Burk analyses were carried out to determine the nature of the inhibition of nitrate transport for each inhibitor.

Test [5] concerns the target NrtA, NrtB (WT strain). Put plainly: Net nitrate uptake assay and kinetics, WT strain. It counts as cell-based, Aspergillus nidulans. The note with it: WT (NrtA, NrtB), inhibitor concentration reducing net nitrate uptake rate by 50 % of control, mean ± SE. Here is the method:
as §1, §2, §3

The test system of test [6] is A. nidulans WT strain (NrtA, NrtB). Put plainly: MIC growth test on solid AMM, WT strain. The note with it: Aspergillus nidulans. It counts as cell-based, Aspergillus nidulans. Here is the method:
(§4) Fungal growth tests were carried out in standard Petri dishes containing defined Aspergillus minimal medium (AMM) agar ([Cove, 1976]), with sodium nitrate or proline as the sole nitrogen source, at 1 or 10 mM concentration. Strains were tested for inhibition by bicarbonate, formate, oxalate, chlorite, sulphite (all purchased as the sodium salt), chlorate (potassium salt), malonate (acid form) or caesium (chloride salt). Stock aqueous solutions of inhibitors were adjusted to pH 6.5 and prepared immediately before use. It should be noted that at pH 6.5, bicarbonate is in approximately 50 % equilibrium with carbonic acid. […] Cultures were incubated routinely at 37 °C for 48 h, and the growth response was scored.
(§5) Each treatment was carried out in five replicates. […] As caesium was utilized as a chloride salt, a control for potential inhibition by chloride was assessed, by growth on 100 mM sodium chloride (Fig. 4).

The subject of test [7] is NrtB. It counts as cell-based, Aspergillus nidulans. Particulars: for nature of inhibition of nitrate transport (Lineweaver–Burk): NrtB (expressed in nrtA1); for Ki: nrtA1 (NrtB), inhibitor concentration reducing net nitrate uptake rate by 50 % of control, mean ± SE. Here is the method: as §1, §2, §3
The test system of test [8] is A. nidulans mutant nrtB110 (functional NrtA). The test is described as follows: microbe, parasite or virus in culture. The note with it: nrtB110 (NrtA). It counts as cell-based, Aspergillus nidulans. As for the experimental part:
as §4, §5

Test [9] has as its system nitrate transport by NrtA and NrtB. The test is described as follows: Net nitrate transport inhibition assays, strain not specified. It counts as cell-based, Aspergillus nidulans. The note with it: net nitrate transport; data not shown. Here is the method: as §1, §2
In test [10] the test system is NitA. The note with it: data not shown.
For test [11], the system named is A. nidulans mutant nrtA1 (functional NrtB). The test is described as follows: microbe, parasite or virus in culture. It counts as cell-based, Aspergillus nidulans. Particulars: Aspergillus nidulans. Here is the method:
as §4, §5

The test system of test [12] is A. nidulans double mutant tbl110 (nrtA747 nrtB110, neither transporter). Put plainly: microbe, parasite or virus in culture. It counts as cell-based, Aspergillus nidulans. Particulars: T110 (neither transporter). As for the experimental part: as §4, §5
[13] abbreviates: 1 mM nitrate as sole nitrogen source, solid AMM, 37 °C.
Setting [14] is: 1 mM proline as sole nitrogen source.
The mark [15] stands for this setting: 10 mM proline as sole nitrogen source.
The mark [16] stands for this setting: Aspergillus nidulans, 1 mM nitrate as sole nitrogen source.
Setting [17] is: Aspergillus nidulans, 10 mM proline as sole nitrogen source.
Setting [18] is: 10 mM nitrate as sole nitrogen source.
The mark [19] stands for this setting: Aspergillus nidulans, 1 mM proline as sole nitrogen source.

T1 sequence (P22152 whole entry): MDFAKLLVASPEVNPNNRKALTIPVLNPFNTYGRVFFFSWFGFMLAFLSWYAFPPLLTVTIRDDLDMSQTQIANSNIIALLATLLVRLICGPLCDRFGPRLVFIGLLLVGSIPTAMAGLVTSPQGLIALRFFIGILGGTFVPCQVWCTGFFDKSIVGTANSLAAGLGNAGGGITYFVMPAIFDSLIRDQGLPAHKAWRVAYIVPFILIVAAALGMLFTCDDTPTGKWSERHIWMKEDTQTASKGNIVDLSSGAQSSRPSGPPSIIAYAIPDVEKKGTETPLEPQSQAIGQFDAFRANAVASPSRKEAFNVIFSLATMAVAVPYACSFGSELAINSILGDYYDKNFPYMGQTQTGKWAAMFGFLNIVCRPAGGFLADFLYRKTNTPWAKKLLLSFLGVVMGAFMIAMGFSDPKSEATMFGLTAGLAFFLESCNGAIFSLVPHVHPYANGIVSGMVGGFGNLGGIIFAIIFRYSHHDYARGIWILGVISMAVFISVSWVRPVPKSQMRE

`[O-][Cl+2]([O-])O` [Chlorate, chlorate]: the “reduction of nitrate transport” value in test [1] and in test [2] was 80% each time. Also, the “substrate / transport by NrtA in oocytes” value in test [3] is on record as “did not, however, observe transport”. Also, the Ki – broadly, the equilibrium dissociation constant of an inhibitor or competing ligand from its target – was 29.3 ± 2.8 mM in [4]; 29.9 ± 3.7 mM in test [5]; around 30 mM in test [5] (listed as chlorate); 44.3 ± 2.3 mM in [7]; around 44 mM in [7] (listed as chlorate). The “nature of inhibition of nitrate transport (Lineweaver–Burk)” value in test [4] was “competition with nitrate”; in [4] (listed as chlorate), “competitive inhibitor”; in test [7], “non-competitive inhibition”; in [7] (listed as chlorate) it was “non-competitively”. In test [4] (read-out: net nitrate transport activity retained), the activity at 10000 µM was 65%. Moreover, the MIC in test [6] (setting [13]) was 100000 µM (≈ 8450 µg/mL); in test [6] (setting [14]), 50000 µM (≈ 4220 µg/mL); in [6] (setting [15]) it was 25000 µM (≈ 2110 µg/mL); in [8] (setting [16]) it was 50000 µM (≈ 4220 µg/mL); in [8] (setting [17]), 50000 µM (≈ 4220 µg/mL). The “net nitrate transport activity retained” value in test [7] (nrtA1 (functional NrtB), 10 mM chlorate, data not shown) amounted to 93%.
Take `[O-][Cl+]O` [Chlorite, chlorite]: in [9], the “concentration sufficient to prevent transport of nitrate completely” value is 1 mM. Besides, the “substrate for nitrite transporter NitA” value in test [10] is given as “significant substrate”. Besides, in test [3], the “substrate / transport by NrtA in oocytes” value is recorded as “substrate”. The Ki is 0.49 ± 0.01 mM in [4], 0.35 ± 0.02 mM in [5] and 0.34 ± 0.02 mM in test [7]. Also, the “nature of inhibition of nitrate transport (Lineweaver–Burk)” value was “competitive; also recorded: competition” in [4] and “non-competitive inhibition” in test [7]. In addition, the MIC was 200 µM (≈ 13.7 µg/mL) in test [6] (setting [13]); 500 µM (≈ 34.2 µg/mL) in [6] (setting [14]); 500 µM (≈ 34.2 µg/mL) in test [6] (setting [18]); 1000 µM (≈ 68.5 µg/mL) in test [6] (setting [15]); 200 µM (≈ 13.7 µg/mL) in test [11] (1 mM nitrate as sole nitrogen source); 500 µM (≈ 34.2 µg/mL) in test [11] (setting [14]). The MIC in [11] (setting [18]) amounted to 500 µM (≈ 34.2 µg/mL); in [11] (setting [15]), 2000 µM (≈ 137 µg/mL); in test [8] (setting [16]) it was 100 µM (≈ 6.85 µg/mL); in [8] (setting [19]) it was 500 µM (≈ 34.2 µg/mL); in test [8] (Aspergillus nidulans, 10 mM nitrate as sole nitrogen source) it was 500 µM (≈ 34.2 µg/mL); in test [8] (setting [17]) it was 3000 µM (≈ 205 µg/mL). Moreover, the MIC in test [8] (setting [15]) was 3000 µM (≈ 205 µg/mL); in test [12] (setting [19]), above 500 µM; in test [12] (setting [17]), 5000 µM (≈ 342 µg/mL); in test [12] (setting [14]) it was above 500 µM.
